Where two headings read alike, the source gives them in different places. Values belong to the molecule of their own block, whether it stands above or below them.
Legend:
MCF7 cells = experiment: crystal violet assay, cellular viability; format: cell-based, human; conditions: for IC50: MCF7, 48 h, read-out: IC50 cellular viability; for viability at 10 µM: MCF7, 10 μM
Procedure: (§1) Compound 1 and compound 2 were tested in their efficacy to kill malignant MCF7 cancer cells. Briefly, 10.000 cells per well were seeded in a 96-well plat on one day and the next day selected compounds were added and incubated with the cells for 48 hrs. The cells were then fixed with 4% paraformaldehyde, stained with 0.05% crystal violet, washed with PBS, and solubilized in 1% SDS. The absorbance of the plate at 595 nm was then measured, quantifying the number of viable cells.
(§2) A number of compounds of the present invention were tested for cytotoxicity towards at least some of human breast cancer cell lines (MCF7, MDA-MB-231), human fibroblast (BJ) and murine triple negative breast cancer cell line 4T1 (Table 2).

[1] = tested on: human mammary gland cancer cell line MDA-MB-231; experiment: dose-effect relationship of drugs and mixtures, crystal violet assay, Median-Effect / Combination index; format: cell-based; conditions: for IC50 / Median-Effect Plot parameter m (slope): MDA-MB-231, crystal violet, 48 hours; for IC50: Chou-Talalay method, read-out: Median-Effect Plot parameter IC50; for concentration of the cytostatic at IC75, cytostatic alone: MDA-MB-231
Procedure: (§3) The potentiation of cytotoxic effect of compound 2 in combination with several cytostatics was evaluated. The dose-effect relationship of individual drugs and mixtures of compound 2 with paclitaxel, cis Pt (cis-platin), doxorubicin and fluorouracil was determined on human mammary gland cancer cell line MDA-MB-231 and pancreatic cell line BxPC3 by means of crystal violet assay. The linearized Median-Effect Plot of dose response line provided both parameters (IC50; trend line m(slope) value) of Median-Effect Equation for individual and combination treatment [ref: Theoretical basis, experimental design, and computerized simulation of synergism and antagonism in drug combination studies; Ting-Chao Chou: Pharmacol Rev. 58(3), 2006, 621-81; Erratum in Pharmacol Rev. 2007; 59(1), 124]:
(§4) Potentiation of combination effect of compound 2 was expressed for concentrations IC50, IC75, IC90, IC95 by calculation of Combination index (CI) applying Combination Index Theorem for mutually exclusive drugs. Overall CI was expressed by means of weighted average of IC50, IC75, IC90, IC95 [ref: Quantitative analysis of dose-effect relationships: the combined effects of multiple drugs or enzyme inhibitors; Ting-Chao Chou, Paul Talalay: Advances in Enzyme Regulation, Volume 22, 1984, Pages 27-55]: […]

non malignant cells (BJ) = experiment: AnnexinV/PI cell death assay; format: cell-based; conditions: ratio Ga:compound 2 1:0, 5 μM gallium salt alone
Procedure: To confirm such findings by an independent method, cell death-inducing potency (cytotoxic efficacy) of DFO and compound 2 have been tested via annexin V/PI staining commonly used as a measure of apoptotic/necrotic cell death. Briefly, cells were seeded in 12-well plate at 100,000 per well, incubated with the selected compounds for 48 hours, then floating cells were spun, adherent cells trypsinized and spun as well followed by the staining with AnnexinV-FITC and PI probes. Cells were then washed with PBS and measured via Fluorescence Activated Sorter.
We have then analyzed the percentage of death cells by the annexinV/PI staining as described in example 7. We have observed a significant potentiation in cell death induction when gallium was combined with compound 2 (Table 14)

[2] = tested on: pancreatic cell line BxPC3; experiment: dose-effect relationship of drugs and mixtures, crystal violet assay, Median-Effect / Combination index; format: cell-based; conditions: for IC50: read-out: Median-Effect Plot parameter IC50
Procedure: as §3, §4

[3] = tested on: murine triple negative breast cancer cell line 4T1; experiment: crystal violet assay, cellular viability; format: cell-based; conditions: Mus musculus, 4T1, 48 hours
Procedure: as §1, §2

BT474 cells = experiment: crystal violet assay, cellular viability; format: cell-based; conditions: crystal violet
MDA-MB-231 cells = experiment: crystal violet assay, cellular viability; format: cell-based, human; conditions: for mean percentage of surviving cells compared to non-treated controls: crystal violet
Procedure: as §1, §2

[4] = Homo sapiens, 48 hrs, crystal violet, read-out: mean percentage of viable cells compared to non-treated controls

SMILES: CC(=O)ON(CCCCCNC(=O)CCC(=O)N(CCCCCNC(=O)CCC(=O)N(CCCCCN(CCCCCCCCCC[P+](c1ccccc1)(c1ccccc1)c1ccccc1)CCCCCCCCCC[P+](c1ccccc1)(c1ccccc1)c1ccccc1)OC(C)=O)OC(C)=O)C(C)=O [Compound 16, (15,26-diacetoxy-4-acetyl-2,11,14,22,25-pentaoxo-32-(10-(triphenylphosphonio)decyl)-3-oxa-4,10,15,21,26,32-hexaazadotetracontan-32-ium-42-yl)triphenylphosphonium trichloride]
IC50 (MCF7 cells; Homo sapiens): 0.8 µM

SMILES: CC(=O)N(O)CCCCCNC(=O)CCC(=O)N(O)CCCCCNC(=O)CCC(=O)N(O)CCCCCNCCCCCCCCCC[P+](c1ccccc1)(c1ccccc1)c1ccccc1 [Compound 1, Triphenyl(3,14,25-trihydroxy-2,10,13,21,24-pentaoxo-3,9,14,20,25,31-hexaazahentetracontan-41-yl) phosphonium chloride]
IC50 (MCF7 cells; Homo sapiens, crystal violet): 2.2 µM | viability at 1 µM (MCF7 cells; Homo sapiens, MCF7, 1 μM, 48 hrs, crystal violet, read-out: mean percentage of viable cells compared to non-treated controls): 83.3% | viability at 2 µM (MCF7 cells; Homo sapiens, MCF7, 2 μM, 48 hrs, crystal violet, read-out: mean percentage of viable cells compared to non-treated controls): 48.2% | viability at 5 µM (MCF7 cells; Homo sapiens, MCF7, 5 μM, 48 hrs, crystal violet, read-out: mean percentage of viable cells compared to non-treated controls): 15.2% | viability at 10 µM (MCF7 cells; [4]): 11.9%

SMILES: CC(=O)N(O)CCCCCNC(=O)CCC(=O)N(O)CCCCCNC(=O)CCC(=O)N(O)CCCCCN(CCCCOCCCCCCCCCC[P+](c1ccccc1)(c1ccccc1)c1ccccc1)CCCCOCCCCCCCCCC[P+](c1ccccc1)(c1ccccc1)c1ccccc1 [Compound 15, 3-(diphenyl(3,14,25-trihydroxy-2,10,13,21,24-pentaoxo-31-(4-((10-(triphenylphosphonio)decyl)oxy)butyl)-36-oxa-3,9,14,20,25,31-hexaazahexatetracontan-31-ium-46-yl)phosphonio)benzen-1-ide trichloride]
IC50 (MCF7 cells; Homo sapiens, crystal violet): 0.5 µM

IC50 ([1]; Homo sapiens): 0.319 µM
SMILES: COc1cccc2c1C(=O)c1c(O)c3c(c(O)c1C2=O)C[C@@](O)(C(=O)CO)C[C@@H]3O[C@H]1C[C@H](N)[C@H](O)[C@H](C)O1 [doxorubicin]
concentration of the cytostatic at IC75, cytostatic alone [1]: 3.5789 µM | Median-Effect Plot parameter m (slope) [1]: 0.4543

IC50 (MCF7 cells; Homo sapiens, crystal violet): 0.7 µM
SMILES: CCCCCCCCCCCCCCCC(=O)ON(CCCCCNC(=O)CCC(=O)N(CCCCCNC(=O)CCC(=O)N(CCCCCN(CCCCCCCCCC[P+](c1ccccc1)(c1ccccc1)c1ccccc1)CCCCCCCCCC[P+](c1ccccc1)(c1ccccc1)c1ccccc1)OC(=O)CCCCCCCCCCCCCCC)OC(=O)CCCCCCCCCCCCCCC)C(C)=O [Compound 17, (39-acetyl-18,21,29,32,41-pentaoxo-17,28-bis(palmitoyloxy)-11-(10-(triphenylphosphonio)decyl)-40-oxa-11,17,22,28,33,39-hexaazahexapentacontyl)triphenylphosphonium trichloride]

SMILES: O=[N+]([O-])[O-].O=[N+]([O-])[O-].O=[N+]([O-])[O-].[Ga+3] [Ga(NO3)2, gallium nitrate, reference compound]
percentage of death cells by annexinV/PI staining (non malignant cells (BJ)): 14.45 (5.6)

IC50 ([2]; 48 hours): 48.3 µM | IC50 ([2]; Homo sapiens, BXPC-3, 48 h): 48.3 µM
SMILES: O=c1[nH]cc(F)c(=O)[nH]1 [Fluorouracil, fluorouracil]
Median-Effect Plot parameter m (slope) ([2]; 48 hours): 0.33

SMILES: N.N.[Cl][Pt][Cl] [cis Pt, cis-platin]
Median-Effect Plot parameter m (slope) ([2]; 48 hours): 1.59 | IC50 ([2]; 48 hours): 4.18 µM | concentration of the cytostatic at IC75, cytostatic alone [1]: 42.2751 µM | Median-Effect Plot parameter m (slope) [1]: 1.4574 | IC50 [1]: 21.8 µM

IC50 [3]: 2.2 µM
SMILES: CC(=O)N(O)CCCCCNC(=O)CCC(=O)N(O)CCCCCNC(=O)CCC(=O)N(O)CCCCCN(Cc1cnnn1CCCCCCCCCC[P+](c1ccccc1)(c1ccccc1)c1ccccc1)Cc1cnnn1CCCCCCCCCC[P+](c1ccccc1)(c1ccccc1)c1ccccc1 [Compound 20, Triphenyl(10-(5-(8,19,30-trihydroxy-9,12,20,23,31-pentaoxo-2-((1-(10-(triphenylphosphonio)decyl)-1H-1,2,3-triazol-5-yl)methyl)-2,8,13,19,24,30-hexaazadotriacontyl)-1H-1,2,3-triazol-1-yl)decyl)phosphonium]

IC50 (MCF7 cells; Homo sapiens, crystal violet): 4 µM
SMILES: CCCCCCCC[P+](CCCCCCCC)(CCCCCCCC)CCCCCCCCCCNCCCCCN(O)C(=O)CCC(=O)NCCCCCN(O)C(=O)CCC(=O)NCCCCCN(O)C(C)=O [Compound 11, 3,14,25-trihydroxy-42,42-dioctyl-2,10,13,21,24-pentaoxo-3,9,14,20,25,31-hexaaza-42-phosphapentacontane-31,42-diium dichloride]

IC50 ([1]; Homo sapiens): 0.0189 µM
SMILES: CC(=O)O[C@H]1C(=O)[C@@]2(C)[C@H]([C@H](OC(=O)c3ccccc3)[C@]3(O)C[C@H](OC(=O)[C@H](O)[C@@H](NC(=O)c4ccccc4)c4ccccc4)C(C)=C1C3(C)C)[C@]1(OC(C)=O)CO[C@@H]1C[C@@H]2O [paclitaxel]
concentration of the cytostatic at IC75, cytostatic alone [1]: 0.1420 µM | Median-Effect Plot parameter m (slope) [1]: 0.5451

SMILES: CC(=O)N(O)CCCCCNC(=O)CCC(=O)N(O)CCCCCNC(=O)CCC(=O)N(O)CCCCCN(CCCCCC[P+](c1ccccc1)(c1ccccc1)c1ccccc1)CCCCCC[P+](c1ccccc1)(c1ccccc1)c1ccccc1.[Cl-].[Cl-] [compound 3, Triphenyl(3,14,25-trihydroxy-2,10,13,21,24-pentaoxo-31-(6-(triphenylphosphonio)hexyl)-3,9,14,20,25,31-hexaazaheptatriacontan-37-yl)phosphonium chloride]
mean percentage of surviving cells compared to non-treated controls (BT474 cells; BT474, 4 μM): 101.7% | mean percentage of surviving cells compared to non-treated controls (BT474 cells; BT474, 6 μM): 109.1% | mean percentage of surviving cells compared to non-treated controls (BT474 cells; BT474, 8 μM): 104.1% | mean percentage of surviving cells compared to non-treated controls (BT474 cells; BT474, 10 μM): 99.2% | mean percentage of surviving cells compared to non-treated controls (BT474 cells; BT474, 20 μM): 91.5% | mean percentage of surviving cells compared to non-treated controls (BT474 cells; BT474, 40 μM): 74.2% | mean percentage of surviving cells compared to non-treated controls (BT474 cells; BT474, 60 μM): 58.9% | mean percentage of surviving cells compared to non-treated controls (BT474 cells; BT474, 80 μM): 49.6% | mean percentage of surviving cells compared to non-treated controls (BT474 cells; BT474, 100 μM): 47.8% | IC50 (BT474 cells; Homo sapiens, BT-474, BT474, 48 hours, read-out: IC50 cellular viability): 83.5 µM | IC50 (MCF7 cells; Homo sapiens, crystal violet): 70.4 µM | viability at 10 µM (MCF7 cells; [4]): 93.9% | mean percentage of surviving cells compared to non-treated controls (MCF7 cells; MCF7, 4 μM, crystal violet): 100.4% | mean percentage of surviving cells compared to non-treated controls (MCF7 cells; MCF7, 6 μM, crystal violet): 99.1% | mean percentage of surviving cells compared to non-treated controls (MCF7 cells; MCF7, 8 μM, crystal violet): 98.2% | mean percentage of surviving cells compared to non-treated controls (MCF7 cells; MCF7, 20 μM, crystal violet): 84.0% | mean percentage of surviving cells compared to non-treated controls (MCF7 cells; MCF7, 40 μM, crystal violet): 74.6% | mean percentage of surviving cells compared to non-treated controls (MCF7 cells; MCF7, 60 μM, crystal violet): 55.2% | mean percentage of surviving cells compared to non-treated controls (MCF7 cells; MCF7, 80 μM, crystal violet): 43.2% | mean percentage of surviving cells compared to non-treated controls (MCF7 cells; MCF7, 100 μM, crystal violet): 37.9% | IC50 (MDA-MB-231 cells; Homo sapiens, MDA-MB-231, 48 h, read-out: IC50 cellular viability): 232 µM | mean percentage of surviving cells compared to non-treated controls (MDA-MB-231 cells; MDA-MB-231, 4 μM): 97.7% | mean percentage of surviving cells compared to non-treated controls (MDA-MB-231 cells; MDA-MB-231, 6 μM): 95.3% | mean percentage of surviving cells compared to non-treated controls (MDA-MB-231 cells; MDA-MB-231, 8 μM): 103.1% | mean percentage of surviving cells compared to non-treated controls (MDA-MB-231 cells; MDA-MB-231, 10 μM): 97.4% | mean percentage of surviving cells compared to non-treated controls (MDA-MB-231 cells; MDA-MB-231, 20 μM): 98.9% | mean percentage of surviving cells compared to non-treated controls (MDA-MB-231 cells; MDA-MB-231, 40 μM): 91.3% | mean percentage of surviving cells compared to non-treated controls (MDA-MB-231 cells; MDA-MB-231, 60 μM): 86.5% | mean percentage of surviving cells compared to non-treated controls (MDA-MB-231 cells; MDA-MB-231, 80 μM): 77.2% | mean percentage of surviving cells compared to non-treated controls (MDA-MB-231 cells; MDA-MB-231, 100 μM): 76.0%

— patent publication US20200078379A1, “DEFEROXAMINE DERIVATIVES AS MEDICAMENTS” (BIOTECHNOLOGICKY USTAV AV CR, V.V.I., priority 2017, published 2020)
